Test results as given in patent US20260108463A1, “NANOEMULSION FORMULATION WITH IMPROVED TACROLIMUS STABILITY AND SKIN PENETRATION” (BIOFRONTERA BIOSCIENCE GMBH, priority 2023, published 2026).
Where two headings read alike, the source gives them in different places.

Columns and labels:
[1] = Solubility test of tacrolimus by visual observation; format: physicochemical; conditions: aqueous nanoemulsion BF200 (at least 90% water content), aqueous with cosolvent or surfactant or cyclodextrin
Description: Tacrolimus was dissolved by mechanical techniques (stirring). Determination of a complete solution of substance was based on visual observation. A complete dissolution was defined as a clear solution with no signs of cloudiness or precipitation. The pure solvents were used as reference.
Samples were prepared as explained in Example D. The compound was dissolved in 10 mM Phosphate buffer (TC2) at defined concentration (see table below). For samples TC3, TC4 and TC5 the lipid phase (intermediate) of nanoemulsion BF200 was used as solvent. In a first step, Tacrolimus was dissolved in the lipid phase, followed by the preparation of the nanoemulsion by combining the aqueous phase with the lipid phase (containing Tacrolimus). Samples TC4 and TC5 were stored at 5° C. and 25° C. for a period of 6 months.

[2] = cited from earlier work
[3] = cited from earlier work; remark: listed apart in the source

solubility [1]: ≥ 2000 µg/mL
Compound: C=CC[C@@H]1/C=C(\C)C[C@H](C)C[C@H](OC)[C@H]2O[C@@](O)(C(=O)C(=O)N3CCCC[C@H]3C(=O)O[C@H](/C(C)=C/[C@@H]3CC[C@@H](O)[C@H](OC)C3)[C@H](C)[C@@H](O)CC1=O)[C@H](C)C[C@@H]2OC [Tacrolimus]
logP [2]: > 3 | Stability in aqueous formulations ([3]; 5° C., prior-art aqueous formulations (suspensions)): up to 9 months | Stability in aqueous formulations ([3]; room temperature, prior-art aqueous formulations (suspensions)): approx. 3 months | Stability in aqueous formulations ([3]; room temperature, prior-art aqueous formulations): approx. 90 days
